{"source": "patent US6486166B1", "about": "“Suppression of cyclin kinase 2 activity for prevention and treatment of DNA viral infections” (Board of Regents, The University of Texas, priority 1997, dated 2002)", "key": {"non-infected LU cells [1]": {"test_system": "non-infected LU cells", "details": "human, 15 μM"}, "[2]": {"experiment": "tolerated dose in animals", "format": "in vivo", "details": "printed 'tolerated by rate'", "from_the_text": "The preferred dosage of inhibitor of cyclin E/Cdk2 activity in a parenteral administration will vary, depending upon the extent of the virus infection, the severity of the symptoms associated with the infection and patient age, weight and medical history. The number of administrations of the parenteral composition will also vary according to the response of the individual patient to the treatment. In one exemplary application. the dosage of inhibitor of cyclin E/Cdk2 activity would vary with the type of disease and the route of administration. Further studies with animal models of infection will completely define projected doses. […] Weaker Cdk2 inhibitors will be needed at higher concentrations, and stronger, at lower."}, "non-infected LU cells [3]": {"test_system": "non-infected LU cells", "experiment": "effects on non-infected LU cells (morphology, flow cytometry, BrdU incorporation)", "details": "15 μM for 96 hr"}, "HCMV-infected LU cells": {"test_system": "HCMV-infected LU cells", "experiment": "hematoxylin and eosin staining of HCMV-infected LU cells", "details": "15 μM; 96 hr after infection"}, "HCMV [4]": {"test_system": "HCMV", "experiment": "infectious HCMV yield by plaque assay", "format": "cell-based, Human cytomegalovirus strain AD169"}, "HCMV [5]": {"test_system": "HCMV", "experiment": "HCMV DNA abundance in infected LU cells by slot blot hybridization", "format": "cell-based, Human cytomegalovirus strain AD169", "details": "density-arrested LU cells, 72 hr post-infection"}, "[6]": {"test_system": "HCMV-infected subconfluent LU cells", "experiment": "cell cycle distribution (DNA content by flow cytometry) after HCMV infection of subconfluent LU cells with PAA", "format": "cell-based, human", "details": "for Percent Cells in phase G0/G1 / Percent Cells in phase G2/M / Percent Cells in phase S: HCMV 5 PFU/cell + PAA 100 μg/ml"}, "human lung fibroblasts": {"test_system": "human lung fibroblasts", "details": "100 μg/ml (0.75 mM); cited from earlier work"}}, "note": "“Also recorded” adds a separate entry of the source.", "data": [{"smiles": "Cn1cnc2c(NCc3ccccc3)nc(NCCO)nc21", "note": "[olomoucine]", "values": [{"measurement": "cells able to incorporate bromodeoxyuridine (BrdU) after removal of the inhibitor", "setting": "non-infected LU cells [1]", "value": "more than 70%"}]}, {"smiles": "CC[C@H](CO)Nc1nc(NCc2ccccc2)c2ncn(C(C)C)c2n1", "note": "[roscovitine]", "values": [{"measurement": "tolerated dose", "setting": "[2]", "value": 3, "unit": "µg/kg"}, {"measurement": "morphological changes of non-infected LU cells", "setting": "non-infected LU cells [3]", "value": "no morphological changes; also recorded: did not present with any obvious morphological changes"}, {"measurement": "cell cycle state of non-infected cells", "setting": "non-infected LU cells [3]; flow cytometry", "value": "arrested in G0/G1 or G2/M phase"}, {"measurement": "morphology of HCMV-infected cells", "setting": "HCMV-infected LU cells", "value": "clearly dying or dead"}, {"measurement": "infectious HCMV yields reduced", "setting": "HCMV [4]; 2.5 μM, 96 hr post-infection", "value": "> 90", "unit": "%"}, {"measurement": "inhibition at 10 µM", "setting": "HCMV [4]; Human betaherpesvirus 5, 96 h, read-out: inhibition of infectious HCMV yields", "value": "> 99.9", "unit": "%"}, {"measurement": "HCMV DNA abundance reduced", "setting": "HCMV [5]; 1 μM", "value": "~50", "unit": "%"}, {"measurement": "viral DNA abundance reduced", "setting": "HCMV [5]; 10 μM", "value": "> 90", "unit": "%"}]}, {"smiles": "O=C(O)CP(=O)(O)O", "note": "[PAA, phosphonoacetic acid]", "values": [{"measurement": "Percent Cells in phase G0/G1", "setting": "[6]; 0 hours after treatment", "value": "93.3 (1.2) percent"}, {"measurement": "Percent Cells in phase G2/M", "setting": "[6]; 0 hours after treatment", "value": "5.1 (1.0) percent"}, {"measurement": "Percent Cells in phase S", "setting": "[6]; 0 hours after treatment", "value": "1.6 (0.2) percent"}, {"measurement": "Percent Cells in phase G0/G1", "setting": "[6]; 24 hours after treatment", "value": "97.2 (0.4) percent"}, {"measurement": "Percent Cells in phase G2/M", "setting": "[6]; 24 hours after treatment", "value": "1.9 (0.3) percent"}, {"measurement": "Percent Cells in phase S", "setting": "[6]; 24 hours after treatment", "value": "0.9 (0.1) percent"}, {"measurement": "Percent Cells in phase G0/G1", "setting": "[6]; 48 hours after treatment", "value": "97.1 (0.8) percent"}, {"measurement": "Percent Cells in phase G2/M", "setting": "[6]; 48 hours after treatment", "value": "1.3 (0.4) percent"}, {"measurement": "Percent Cells in phase S", "setting": "[6]; 48 hours after treatment", "value": "1.5 (0.4) percent"}, {"measurement": "Percent Cells in phase G0/G1", "setting": "[6]; 72 hours after treatment", "value": "97.2 (0.3) percent"}, {"measurement": "Percent Cells in phase G2/M", "setting": "[6]; 72 hours after treatment", "value": "0.9 (0.1) percent"}, {"measurement": "Percent Cells in phase S", "setting": "[6]; 72 hours after treatment", "value": "1.9 (0.3) percent"}, {"measurement": "increase in DNA content after HCMV infection", "setting": "[6]; subconfluent LU cells infected in the presence of PAA", "value": "no detectable increase in DNA content"}, {"measurement": "effect on viral DNA replication", "setting": "human lung fibroblasts", "value": "blocks viral DNA replication"}]}]}
